For the first assay, the target named is Glutamate receptor ionotropic, NMDA 1 (Rattus norvegicus) (UniProt P35439). Briefly: Binding affinity for glycine site-NMDA receptor was determined by the ability to displace [3H]glycine in rat cortical membranes at 10 uM. The format is cell membranes.
`Cc1cc2[nH]c(=O)c(=O)n(CCCC(=O)O)c2cc1C` yielded a Displacement of 29.6%.

The molecule `Cc1ccc(S(=O)(=O)NC(=O)Cn2c(=O)c(=O)[nH]c3cc(C)c(C)cc32)cc1` came in with a Displacement of 48%.

`Cc1cc2[nH]c(=O)c(=O)n(CCC(=O)O)c2cc1C` yielded a Displacement of 58.2%.

On to `Cc1cc2[nH]c(=O)c(=O)n(CC(=O)NS(C)(=O)=O)c2cc1C`, for which the Displacement was found to be 36%.

Molecule `Cc1cc2[nH]c(=O)c(=O)n(C(C)C(=O)O)c2cc1C` (centres undefined) showed a Displacement of 2.6%.

The molecule `Cc1cc2[nH]c(=O)c(=O)n(Cc3nn[nH]n3)c2cc1C` registered a Displacement of 49.6%.

Molecule `O=c1[nH]c2cc(Cl)c(Cl)cc2n(Cc2nn[nH]n2)c1=O` registered a Displacement of 58.8%.

In a further assay the target is Glutamate receptor ionotropic, AMPA (Rattus norvegicus, UniProt P19490+P19491+P19492+P19493).
`Cc1cc2[nH]c(=O)c(=O)n(CCCC(=O)O)c2cc1C` registered a Ki of 8000 nM.

On to `Cc1cc2[nH]c(=O)c(=O)n(CC(=O)O)c2cc1C`, for which the Ki was found to be 700 nM.

Take `O=C(O)Cn1c(=O)c(=O)[nH]c2cc(Cl)c(Cl)cc21`: the Ki came out at 2100 nM.

In turn, `Cc1cc2[nH]c(=O)c(=O)n(CP(=O)(O)O)c2cc1C` returned a Ki of 1210 nM.

Another assay has as its target Glutamate receptor ionotropic, AMPA (Rattus norvegicus) (UniProt P19491+P19492+P19493+P19490). Briefly: Binding affinity for Ionotropic glutamate receptor AMPA was determined by the ability to displace [3H]AMPA in rat cortical membranes at 10 uM. It counts as cell membranes.
Molecule `Cc1ccc(S(=O)(=O)NC(=O)Cn2c(=O)c(=O)[nH]c3cc(C)c(C)cc32)cc1` showed a Displacement of 28%.

For `Cc1cc2[nH]c(=O)c(=O)n(CCC(=O)O)c2cc1C`, the Displacement amounted to 28.5%.

`Cc1cc2[nH]c(=O)c(=O)n(CC(=O)Nc3ccccc3)c2cc1C`: the Displacement stood at 5.2%.

In turn, `COC(=O)Cn1c(=O)cnc2cc(C)c(C)cc21` returned a Displacement of 4.6%.

Turning to `Cc1cc2[nH]c(=O)c(=O)n(CC(=O)NS(C)(=O)=O)c2cc1C`, the Displacement stood at 49%.

On to `Cc1cc2[nH]c(=O)c(=O)n(C(C)C(=O)O)c2cc1C` (centres undefined), for which the Displacement was 13.9%.

The molecule `Cc1cc2[nH]c(=O)c(=O)n(Cc3nn[nH]n3)c2cc1C` had a Displacement of 52.4%.

Turning to `O=c1[nH]c2cc(Cl)c(Cl)cc2n(Cc2nn[nH]n2)c1=O`, the Displacement amounted to 58.6%.

In the next assay the target is Glutamate receptor ionotropic, NMDA 1 (Rattus norvegicus, UniProt P35439). Briefly: Binding affinity for glycine site-NMDA receptor was determined by the ability to displace [3H]glycine in rat cortical membranes. The format is cell membranes.
Regarding `Cc1cc2[nH]c(=O)c(=O)n(CC(=O)O)c2cc1C`, the affinity, expressed as Ki, was 13800 nM.

`O=C(O)Cn1c(=O)c(=O)[nH]c2cc(Cl)c(Cl)cc21`: the affinity, expressed as Ki, was 110 nM.

Regarding `Cc1cc2[nH]c(=O)c(=O)n(CP(=O)(O)O)c2cc1C`, the Ki came out at 5280 nM. Compared with the last molecule, the Ki is about 48-fold higher.

In another assay the target is Glutamate receptor ionotropic, NMDA 1 (Rattus norvegicus) (UniProt P35439). Briefly: Tested for the ability to displace [3H]glycine in rat cortical membranes at a concentration of 10 uM. The format is cell membranes.
On to `Cc1cc2[nH]c(=O)c(=O)n(CC(=O)Nc3ccccc3)c2cc1C`, for which the Displacement amounted to 2.9%.

For `COC(=O)Cn1c(=O)cnc2cc(C)c(C)cc21`, the Displacement worked out at 8%.

The term Ki denotes the equilibrium dissociation constant of an inhibitor or competing ligand from its target. The low end stands for higher affinity, the high end for lower affinity.

Values taken from ChEMBL document CHEMBL1127000, “Synthesis and excitatory amino acid pharmacology of some novel quinoxalinediones” (Bioorg Med Chem Lett, 1993).
